The assay has as its system Cercospora arachidicola. The assay can be described thus: Liquid culture 96-well mixture assay with malonomicin, Cercospora arachidicola, 5-6 days. The assay is classed as cell-based. The note with it: line H malonomicin alone, concentrations in Table 8. Here is the method: A stock solution for compound of Formula I(a) was produced in DMSO (max. 10 mg/ml). Malonomicin was produced according to Law et al, 2018 (Nature Catalys is |VOL 1|DECEMBER 2018|977-984). A stock solution of malonomicin was produced in water plus 0.025% Tween® 20.
Assays to test efficacy of mixtures of the lipopeptide compound of Formula I(a) in combination with malonomicin on the control of fungal pathogens in a liquid culture assay were designed for a 96well plate as outlined in table 1:
The 96 well plate design allows to compare disease control of the mixture with disease control of the respective single compound at the same rate.
A master plate with 10× concentrated solution of the compound stock solutions diluted in water plus 0.025% Tween® 20 was prepared. The concentration of DMSO (from the stock of compound of Formula (a)) and Tween® 20 was kept constant in all cells of the master plate. 10 μl was transferred from the master plate to a 96well test plate. The nutrient broth containing the fungal spores/mycelia fragments was then added to the test plate to give an end concentration of 1× for the tested compounds (as outlined in Table 8). The test plates were incubated in the dark at 24 °C and 96% rh. […]
Cercospora arachidicola (EPPO Code: MYCOAR)
Conidia of the fungus from cryogenic storage were directly mixed into nutrient broth (PDB: potato dextrose broth).

Consider 1 molecule from patent US20260347403A1, “FUNGICIDAL COMPOUND” (priority 2022, published 2026).

Consider `NC[C@@H]1NC(=O)C(C(=O)CC(NC(=O)[C@@H](N)CO)(C(=O)O)C(=O)O)=C1O` [malonomicin, {[(2S)-2-amino-3-hydroxypropanoyl]amino}{2-[(5S)-5-(aminomethyl)-4-hydroxy-2-oxo-2,5-dihydro-1H-pyrrol-3-yl]-2-oxoethyl}malonic acid], for which the “control of fungal growth (% reduction of growth in the test well as compared to untreated check)” value came to 100% (plate column (2), highest malonomicin concentration, lines A-G with compound of Formula I(a) dilution series); 90% (plate column (3) of malonomicin dilution series, lines A-G with compound of Formula I(a)); 70% (plate column (4) of malonomicin dilution series, lines A-G with compound of Formula I(a)); 70% (plate column (5) of malonomicin dilution series, lines A-G with compound of Formula I(a)); 50% (plate column (6) of malonomicin dilution series, lines A-G with compound of Formula I(a)); 50% (plate column (7) of malonomicin dilution series, lines A-G with compound of Formula I(a)). Besides, the “control of fungal growth (% reduction of growth in the test well as compared to untreated check)” value (plate column (8) of malonomicin dilution series, lines A-G with compound of Formula I(a)) is 20%; the “control of fungal growth (% reduction of growth in the test well as compared to untreated check)” value (plate column (9) of malonomicin dilution series, lines A-G with compound of Formula I(a)) came to 20%; the “control of fungal growth (% reduction of growth in the test well as compared to untreated check)” value (plate column (10) of malonomicin dilution series, lines A-G with compound of Formula I(a)) is recorded as 0%; the “control of fungal growth (% reduction of growth in the test well as compared to untreated check)” value (plate column (11), lowest malonomicin concentration, lines A-G with compound of Formula I(a)) is on record as 0%.
